According to patent US10562898B2, “Substituted benzenesulfonamides as inhibitors of alpha-4 beta-7 integrin activity” (EA PHARMA CO., LTD., priority 2016, dated 2020):

Target: T1, α4β1 integrin (Homo sapiens, UniProt P05556+P13612)
T1 construct: a cell line Jurkat, which is known to express α4β1 integrin; endogenous in cells; host or cells: Jurkat (human T cell line)
Assay: VCAM-1/α4β1 integrin binding inhibitory activity evaluation test (Jurkat cells binding to VCAM-1/Fc)
Assay type: cell-based
Settings: recombinant human VCAM-1/Fc
Method: (1) VCAM-1/α4β1 Integrin Binding Inhibitory Activity Evaluation Test
Each test substance was measured in terms of an ability to inhibit the VCAM-1 binding of a human T cell line, namely, a cell line Jurkat, which is known to express α4β1 integrin.
A solution of recombinant human VCAM-1/Fc (R&D Systems, Inc.) (1 μg/mL) diluted with a buffer A (carbonate buffer, pH 9.6) was placed in an amount of 50 μL/well in a 96-well microtiter plate, followed by incubation at 4° C. overnight. After the plate was washed with PBS once, 150 μL/well of Block Ace (Snow Brand Milk Products Co., Ltd.) was added, followed by incubation at room temperature for 2 hours. After removal, the plate was washed with PBS once.
Then, 100 μL of the Jurkat cells (2×10^6 cells/mL) and 100 μL of the test substance at each of various concentrations diluted with a binding buffer (DMEM containing 40 mM HEPES, 0.2% BSA, and 4 mM MnCl2) were added to the plate coated with the VCAM-1/Fc (5×10^5 cells/well), followed by incubation at 30° C. for 15 to 60 minutes. After the cells were bound to the wells, the plate was washed with PBS to remove unbound cells. A buffer C (PBS containing 1.5% Triton X-100) was added in an amount 50 μL/well to the plate to lyse the bound Jurkat cells. After 30 μL of a substrate buffer (Promega, CytoTox 96 Non-Radioactive Cytotoxicity Assay) was added to 30 μL of the cell lysate, a reaction was allowed to proceed at room temperature in the dark for 30 minutes. After 30 μL of a stop solution (Promega, CytoTox 96 Non-Radioactive Cytotoxicity Assay) was added to each, and then an absorbance at 490 nm was measured using a plate reader. The absorbance obtained here represents a detection result of an activity of lactate dehydrogenase (LDH) eluted in the supernatant of each well, that is, the absorbance is proportional to the number of Jurkat cells bound to the VCAM-1 and thus remaining on the plate. The test was performed in duplicate. Provided that the absorbance of a well containing no test substance was 100%, a cell binding rate with the test substance at each of the various concentrations was figured out, and a concentration IC50 which brought about 50% binding inhibition was calculated.

T1 sequence (P13612 34-1032): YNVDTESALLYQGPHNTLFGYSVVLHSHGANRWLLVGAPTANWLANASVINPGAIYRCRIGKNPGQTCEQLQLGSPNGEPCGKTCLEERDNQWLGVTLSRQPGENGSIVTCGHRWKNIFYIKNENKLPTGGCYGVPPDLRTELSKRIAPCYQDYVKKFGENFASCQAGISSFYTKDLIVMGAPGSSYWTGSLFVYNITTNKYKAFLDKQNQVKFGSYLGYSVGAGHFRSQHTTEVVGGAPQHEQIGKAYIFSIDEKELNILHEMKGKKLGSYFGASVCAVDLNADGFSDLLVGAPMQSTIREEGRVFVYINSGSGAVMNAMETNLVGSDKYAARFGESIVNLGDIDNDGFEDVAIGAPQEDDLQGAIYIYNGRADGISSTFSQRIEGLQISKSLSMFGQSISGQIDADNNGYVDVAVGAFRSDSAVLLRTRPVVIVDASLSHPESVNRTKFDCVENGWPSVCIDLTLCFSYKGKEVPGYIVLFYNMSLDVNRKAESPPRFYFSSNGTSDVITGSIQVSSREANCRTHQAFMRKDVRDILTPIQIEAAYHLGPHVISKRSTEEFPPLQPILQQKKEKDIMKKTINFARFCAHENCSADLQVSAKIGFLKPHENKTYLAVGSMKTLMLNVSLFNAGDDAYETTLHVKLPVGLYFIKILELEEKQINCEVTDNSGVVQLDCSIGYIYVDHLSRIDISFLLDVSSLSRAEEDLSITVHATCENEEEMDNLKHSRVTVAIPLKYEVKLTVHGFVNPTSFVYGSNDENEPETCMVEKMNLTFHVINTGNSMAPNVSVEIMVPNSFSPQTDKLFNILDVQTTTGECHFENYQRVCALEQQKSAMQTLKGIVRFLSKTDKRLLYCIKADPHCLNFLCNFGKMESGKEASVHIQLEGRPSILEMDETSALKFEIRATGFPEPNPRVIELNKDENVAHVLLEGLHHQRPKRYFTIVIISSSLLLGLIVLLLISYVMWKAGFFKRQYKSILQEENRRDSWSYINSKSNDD
T1 sequence (P05556 21-798): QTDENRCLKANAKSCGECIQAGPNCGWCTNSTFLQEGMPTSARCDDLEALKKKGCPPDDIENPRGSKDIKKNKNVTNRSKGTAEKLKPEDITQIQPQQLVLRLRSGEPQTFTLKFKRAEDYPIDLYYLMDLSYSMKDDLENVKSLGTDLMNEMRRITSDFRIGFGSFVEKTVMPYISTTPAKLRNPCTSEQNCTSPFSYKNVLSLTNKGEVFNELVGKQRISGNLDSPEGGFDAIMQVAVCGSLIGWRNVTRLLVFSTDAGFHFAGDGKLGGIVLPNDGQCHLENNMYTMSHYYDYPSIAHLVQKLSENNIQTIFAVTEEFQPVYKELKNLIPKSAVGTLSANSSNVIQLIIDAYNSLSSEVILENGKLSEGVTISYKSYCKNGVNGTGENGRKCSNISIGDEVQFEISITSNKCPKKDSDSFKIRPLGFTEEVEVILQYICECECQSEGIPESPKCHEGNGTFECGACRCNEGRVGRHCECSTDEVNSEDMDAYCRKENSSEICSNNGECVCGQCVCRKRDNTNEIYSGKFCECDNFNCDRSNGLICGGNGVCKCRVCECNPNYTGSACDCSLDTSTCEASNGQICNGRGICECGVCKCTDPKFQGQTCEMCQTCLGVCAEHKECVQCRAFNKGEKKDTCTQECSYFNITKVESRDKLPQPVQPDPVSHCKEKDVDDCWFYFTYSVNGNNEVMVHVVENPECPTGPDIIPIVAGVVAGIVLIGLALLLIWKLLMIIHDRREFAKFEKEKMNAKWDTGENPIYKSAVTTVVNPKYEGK

SMILES | IC50 [µM]
Cn1cnc2c1c(=O)n(-c1ccc(C[C@H](NC(=O)c3cc(F)c(NS(=O)(=O)c4ccc(NC(=O)C(C)(C)C)cc4)cc3F)C(=O)O)cc1)c(=O)n2C [Compound A43] | 1.2
Cn1c2c(c(=O)n(-c3ccc(C[C@H](NC(=O)c4cc(F)c(NS(=O)(=O)c5ccc(NC(=O)C(C)(C)C)cc5)cc4F)C(=O)O)cn3)c1=O)COCC2 [Compound A44] | 3.4
Cc1cc(=O)n(-c2ccc(C[C@H](NC(=O)c3cc(F)c(NS(=O)(=O)c4ccc(NC(=O)C(C)(C)C)cc4)cc3F)C(=O)O)cn2)c(=O)n1C [Compound A45] | 10
Cc1cc(=O)n(-c2ccc(C[C@H](NC(=O)c3cc(F)c(NS(=O)(=O)c4ccc(NC(=O)C(C)(C)C)cc4)cc3F)C(=O)O)cc2)c(=O)n1C [Compound A46] | 1.8
Cn1c2c(c(=O)n(-c3ccc(C[C@H](NC(=O)c4cc(F)c(NS(=O)(=O)c5ccc(NC(=O)C(C)(C)C)cc5)cc4F)C(=O)O)nc3)c1=O)CCCC2 [Compound A47] | 4.1
Cc1c(C)n(C(C)C)c(=O)n(-c2ccc(C[C@H](NC(=O)c3cc(F)c(NS(=O)(=O)c4ccc(NC(=O)C(C)(C)C)cc4)cc3F)C(=O)O)cc2)c1=O [Compound A48] | 11
Cc1c(C)n(C)c(=O)n(-c2ccc(C[C@H](NC(=O)c3cc(F)c(NS(=O)(=O)c4cccc(NC(=O)C(C)(C)C)c4)cc3F)C(=O)O)cc2)c1=O [Compound A49] | 1.8
Cc1c(C)n(C)c(=O)n(-c2ccc(C[C@H](NC(=O)c3cc(F)c(NS(=O)(=O)c4cccc(NC(=O)C(C)(C)C)c4)cc3F)C(=O)O)cn2)c1=O [Compound A50] | 7.1
Cc1c(CO)c(=O)n(-c2ccc(C[C@H](NC(=O)c3cc(F)c(NS(=O)(=O)c4ccc(NC(=O)C(C)(C)C)cc4)cc3F)C(=O)O)cc2)c(=O)n1C [Compound A51] | 5.5
Cn1c2c(c(=O)n(-c3ccc(C[C@H](NC(=O)c4cc(F)c(NS(=O)(=O)c5ccc(NC(=O)C(C)(C)C)cc5)cc4F)C(=O)O)cn3)c1=O)CCCC2 [Compound A52] | 2.2
Cn1ccc(=O)n(-c2ccc(C[C@H](NC(=O)c3cc(F)c(NS(=O)(=O)c4ccc(NC(=O)C(C)(C)C)cc4)cc3F)C(=O)O)cn2)c1=O [Compound A53] | > 31.2
Cc1cn(C)c(=O)n(-c2ccc(C[C@H](NC(=O)c3cc(F)c(NS(=O)(=O)c4ccc(NC(=O)C(C)(C)C)cc4)cc3F)C(=O)O)cn2)c1=O [Compound A54] | 29
Cn1ccc(=O)n(-c2ccc(C[C@H](NC(=O)c3cc(F)c(NS(=O)(=O)c4ccc(NC(=O)C5(C(F)(F)F)CC5)cc4)cc3F)C(=O)O)cn2)c1=O [Compound A55] | > 31.2
Cc1cn(C)c(=O)n(-c2ccc(C[C@H](NC(=O)c3cc(F)c(NS(=O)(=O)c4ccc(NC(=O)C5(C(F)(F)F)CC5)cc4)cc3F)C(=O)O)cn2)c1=O [Compound A56] | 19
Cn1ccc(=O)n(-c2ccc(C[C@H](NC(=O)c3cc(F)c(NS(=O)(=O)c4ccc(NC(=O)C(C)(C)C(F)(F)F)cc4)cc3F)C(=O)O)cn2)c1=O [Compound A57] | 25
Cc1cn(C)c(=O)n(-c2ccc(C[C@H](NC(=O)c3cc(F)c(NS(=O)(=O)c4ccc(NC(=O)C(C)(C)C(F)(F)F)cc4)cc3F)C(=O)O)cn2)c1=O [Compound A58] | 14
Cn1ccc(=O)n(-c2ccc(C[C@H](NC(=O)c3cc(F)c(NS(=O)(=O)c4ccc(NC(=O)C5(C#N)CC5)cc4)cc3F)C(=O)O)cn2)c1=O [Compound A59] | > 31.2
Cc1cn(C)c(=O)n(-c2ccc(C[C@H](NC(=O)c3cc(F)c(NS(=O)(=O)c4ccc(NC(=O)C5(C#N)CC5)cc4)cc3F)C(=O)O)cn2)c1=O [Compound A60] | 12

SMILES | IC50 [µM]
CCC(CC)C(=O)Nc1ccc(S(=O)(=O)Nc2cc(F)c(C(=O)N[C@@H](Cc3ccc(-n4c(=O)ccn(C)c4=O)nc3)C(=O)O)cc2F)cc1 [Compound A61] | > 31.2
Cn1ccc(=O)n(-c2ccc(C[C@H](NC(=O)c3cc(F)c(NS(=O)(=O)c4ccc(NC(=O)C(C)(C)CO)cc4)cc3F)C(=O)O)cn2)c1=O [Compound A62] | > 31.2
Cc1cn(C)c(=O)n(-c2ccc(C[C@H](NC(=O)c3cc(F)c(NS(=O)(=O)c4ccc(NC(=O)C(C)(C)CO)cc4)cc3F)C(=O)O)cn2)c1=O [Compound A63] | > 31.2
Cn1ccc(=O)n(-c2ccc(C[C@H](NC(=O)c3cc(F)c(NS(=O)(=O)c4ccc(NC(=O)C5CCCC5)cc4)cc3F)C(=O)O)cn2)c1=O [Compound A64] | > 31.2
Cc1cn(C)c(=O)n(-c2ccc(C[C@H](NC(=O)c3cc(F)c(NS(=O)(=O)c4ccc(NC(=O)C5CCCC5)cc4)cc3F)C(=O)O)cn2)c1=O [Compound A65] | 21
Cn1c(C(F)(F)F)cc(=O)n(-c2ccc(C[C@H](NC(=O)c3cc(F)c(NS(=O)(=O)c4ccc(NC(=O)C(C)(C)C)cc4)cc3F)C(=O)O)cn2)c1=O [Compound A66] | 19
Cn1cc(C(F)(F)F)c(=O)n(-c2ccc(C[C@H](NC(=O)c3cc(F)c(NS(=O)(=O)c4ccc(NC(=O)C(C)(C)C)cc4)cc3F)C(=O)O)cn2)c1=O [Compound A67] | 19
Cc1cn(C)c(=O)n(-c2ccc(C[C@H](NC(=O)c3cc(F)c(NS(=O)(=O)c4ccc(NC(=O)C#CC(C)(C)C)cc4)cc3F)C(=O)O)cn2)c1=O [Compound A68] | 2.3
Cc1cn(C)c(=O)n(-c2ccc(C[C@H](NC(=O)c3cc(F)c(NS(=O)(=O)c4ccc(NC(=O)C(C)(C)C)cc4)cc3F)C(=O)O)nc2)c1=O [Compound A69] | 13
Cn1ccc(=O)n(-c2ccc(C[C@H](NC(=O)c3cc(F)c(NS(=O)(=O)c4ccc(NC(=O)C(C)(C)C)cc4)cc3F)C(=O)O)nc2)c1=O [Compound A70] | 38
Cc1cn(C)c(=O)n(-c2ccc(C[C@H](NC(=O)c3cc(F)c(NS(=O)(=O)c4ccc(NC(=O)C(C)C)cc4)cc3F)C(=O)O)cn2)c1=O [Compound A71] | 15
Cc1cc(=O)n(-c2ccc(C[C@H](NC(=O)c3cc(F)c(NS(=O)(=O)c4ccc(NC(=O)C(C)(C)C)cc4)cc3F)C(=O)O)nc2)c(=O)n1C [Compound A72] | 9.3
Cc1cn(C)c(=O)n(-c2ccc(C[C@H](NC(=O)c3cc(F)c(NS(=O)(=O)c4ccc(NC(=O)C(C)(C)C)s4)cc3F)C(=O)O)cn2)c1=O [Compound A73] | 21
Cc1cn(C)c(=O)n(-c2ccc(C[C@H](NC(=O)c3cc(F)c(NS(=O)(=O)c4ccc5c(NC(=O)C(C)(C)C)c[nH]c5c4)cc3F)C(=O)O)cn2)c1=O [Compound A74] | 7.4
CN1CCC(=O)N(c2ccc(C[C@H](NC(=O)c3cc(F)c(NS(=O)(=O)c4ccc(NC(=O)C(C)(C)C)cc4)cc3F)C(=O)O)cn2)C1=O [Compound A75, (2S)-2-[2,5-difluoro-4-[(4-pivalamidophenyl)sulfonamide]benzamido]-3-[6-(3-methyl-2,6-dioxotetrahydropyrimidin-1(2H)-yl)pyridin-3-yl]propanoic acid] | 32
Cc1cn(C)c(=O)n(-c2ccc(C[C@H](NC(=O)c3cc(F)c(NS(=O)(=O)c4cc5cc(NC(=O)C(C)(C)C)ccc5[nH]4)cc3F)C(=O)O)cn2)c1=O [Compound A76] | 25
Cc1cn(C)c(=O)n(-c2ccc(C[C@H](NC(=O)c3cc(F)c(NS(=O)(=O)c4c[nH]c5cc(NC(=O)C(C)(C)C)ccc45)cc3F)C(=O)O)cn2)c1=O [Compound A77] | 7.1
